From ChEMBL document CHEMBL4507259 (2021)

Legend:
[1] = molecular target: Mu-type opioid receptor (Homo sapiens) (UniProt P35372); experiment: mu (MOP) (h) CEREP ligand profiling; settings: filed as agonist, Compound concentration 10.0 uM
[2] = molecular target: Serine/threonine-protein kinase BRSK1 (Homo sapiens) (UniProt Q8TDC3); settings: Compound concentration 1000.0 nM
[3] = molecular target: Peripheral plasma membrane protein CASK (Homo sapiens) (UniProt O14936); settings: Compound concentration 1000.0 nM
[4] = molecular target: Tyrosine-protein kinase CSK (Homo sapiens) (UniProt P41240); settings: Compound concentration 1000.0 nM
[5] = molecular target: Casein kinase I isoform gamma-3 (Homo sapiens) (UniProt Q9Y6M4); settings: Compound concentration 1000.0 nM
[6] = molecular target: Discoidin domain-containing receptor 2 (Homo sapiens) (UniProt Q16832); settings: Compound concentration 1000.0 nM
[7] = molecular target: Mitogen-activated protein kinase kinase kinase 12 (Homo sapiens) (UniProt Q12852); settings: Compound concentration 1000.0 nM
[8] = molecular target: Myotonin-protein kinase (Homo sapiens) (UniProt Q09013); settings: Compound concentration 1000.0 nM
[9] = molecular target: Epidermal growth factor receptor (Homo sapiens) (UniProt P00533); settings: Compound concentration 1000.0 nM
[10] = test system: Epidermal growth factor receptor (Homo sapiens), P00533 [UNDEFINED MUTATION]; settings: Compound concentration 1000.0 nM
[11] = molecular target: Fibroblast growth factor receptor 4 (Homo sapiens) (UniProt P22455); settings: Compound concentration 1000.0 nM
[12] = test system: Receptor-type tyrosine-protein kinase FLT3 (Homo sapiens), P36888 [K663Q]; settings: Compound concentration 1000.0 nM
[13] = molecular target: Vascular endothelial growth factor receptor 3 (Homo sapiens) (UniProt P35916); settings: Compound concentration 1000.0 nM
[14] = molecular target: Tyrosine-protein kinase Fyn (Homo sapiens) (UniProt P06241); settings: Compound concentration 1000.0 nM
[15] = molecular target: Inhibitor of nuclear factor kappa-B kinase subunit beta (Homo sapiens) (UniProt O14920); settings: Compound concentration 1000.0 nM
[16] = molecular target: LIM domain kinase 1 (Homo sapiens) (UniProt P53667); settings: Compound concentration 1000.0 nM
[17] = molecular target: Mitogen-activated protein kinase kinase kinase kinase 4 (Homo sapiens) (UniProt O95819); settings: Compound concentration 1000.0 nM
[18] = molecular target: Microtubule-associated serine/threonine-protein kinase 1 (Homo sapiens) (UniProt Q9Y2H9); settings: Compound concentration 1000.0 nM
[19] = molecular target: Tyrosine-protein kinase Mer (Homo sapiens) (UniProt Q12866); settings: Compound concentration 1000.0 nM
[20] = test system: Hepatocyte growth factor receptor (Homo sapiens), P08581 [Y1235D]; settings: Compound concentration 1000.0 nM
[21] = molecular target: Mitogen-activated protein kinase kinase kinase 9 (Homo sapiens) (UniProt P80192); settings: Compound concentration 1000.0 nM
[22] = molecular target: Serine/threonine-protein kinase Nek4 (Homo sapiens) (UniProt P51957); settings: Compound concentration 1000.0 nM
[23] = molecular target: Serine/threonine-protein kinase Nek7 (Homo sapiens) (UniProt Q8TDX7); settings: Compound concentration 1000.0 nM
[24] = molecular target: Calcium-dependent protein kinase 1 (Plasmodium falciparum) (UniProt P62344); settings: Compound concentration 1000.0 nM
[25] = molecular target: Phosphatidylinositol 4,5-bisphosphate 3-kinase catalytic subunit delta isoform (Homo sapiens) (UniProt O00329); settings: Compound concentration 1000.0 nM
[26] = molecular target: Serine/threonine-protein kinase PLK4 (Homo sapiens) (UniProt O00444); settings: Compound concentration 1000.0 nM
[27] = molecular target: Receptor-interacting serine/threonine-protein kinase 2 (Homo sapiens) (UniProt O43353); settings: Compound concentration 1000.0 nM
[28] = molecular target: Ribosomal protein S6 kinase alpha-3 (Homo sapiens) (UniProt P51812); settings: Compound concentration 1000.0 nM
[29] = molecular target: Tyrosine-protein kinase Srms (Homo sapiens) (UniProt Q9H3Y6); settings: Compound concentration 1000.0 nM
[30] = molecular target: SRSF protein kinase 3 (Homo sapiens) (UniProt Q9UPE1); settings: Compound concentration 1000.0 nM
[31] = molecular target: Serine/threonine-protein kinase 33 (Homo sapiens) (UniProt Q9BYT3); settings: Compound concentration 1000.0 nM
[32] = molecular target: Serine/threonine-protein kinase TNNI3K (Homo sapiens) (UniProt Q59H18); settings: Compound concentration 1000.0 nM
[33] = molecular target: Serine/threonine-protein kinase ULK2 (Homo sapiens) (UniProt Q8IYT8); settings: Compound concentration 1000.0 nM
[34] = molecular target: Serine/threonine-protein kinase WNK2 (Homo sapiens) (UniProt Q9Y3S1); settings: Compound concentration 1000.0 nM
[35] = molecular target: Serine/threonine-protein kinase 25 (Homo sapiens) (UniProt O00506); settings: Compound concentration 1000.0 nM
[36] = molecular target: Tyrosine-protein kinase ZAP-70 (Homo sapiens) (UniProt P43403); settings: Compound concentration 1000.0 nM
[37] = molecular target: 5-hydroxytryptamine receptor 5A (Homo sapiens) (UniProt P47898); settings: Compound concentration 10.0 uM
[38] = molecular target: Histamine H2 receptor (Homo sapiens) (UniProt P25021); settings: Compound concentration 10.0 uM
[39] = molecular target: T1, Muscarinic acetylcholine receptor M1 (Homo sapiens) (UniProt P11229); settings: Compound concentration 10.0 uM
T1 sequence (whole entry): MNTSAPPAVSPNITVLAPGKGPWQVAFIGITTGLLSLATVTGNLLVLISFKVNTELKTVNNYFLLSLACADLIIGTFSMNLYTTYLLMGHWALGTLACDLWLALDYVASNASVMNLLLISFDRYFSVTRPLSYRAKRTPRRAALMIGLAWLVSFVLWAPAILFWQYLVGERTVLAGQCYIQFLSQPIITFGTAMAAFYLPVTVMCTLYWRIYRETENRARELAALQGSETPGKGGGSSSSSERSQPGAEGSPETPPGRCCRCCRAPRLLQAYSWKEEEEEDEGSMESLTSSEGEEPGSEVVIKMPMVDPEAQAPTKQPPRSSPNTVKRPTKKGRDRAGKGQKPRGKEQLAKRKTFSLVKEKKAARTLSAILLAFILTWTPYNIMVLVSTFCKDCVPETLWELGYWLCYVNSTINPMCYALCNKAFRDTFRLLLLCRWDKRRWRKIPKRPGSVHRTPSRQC

Tyrosine-protein kinase Fyn (Homo sapiens), sequence (P06241 2-537 limits assumed): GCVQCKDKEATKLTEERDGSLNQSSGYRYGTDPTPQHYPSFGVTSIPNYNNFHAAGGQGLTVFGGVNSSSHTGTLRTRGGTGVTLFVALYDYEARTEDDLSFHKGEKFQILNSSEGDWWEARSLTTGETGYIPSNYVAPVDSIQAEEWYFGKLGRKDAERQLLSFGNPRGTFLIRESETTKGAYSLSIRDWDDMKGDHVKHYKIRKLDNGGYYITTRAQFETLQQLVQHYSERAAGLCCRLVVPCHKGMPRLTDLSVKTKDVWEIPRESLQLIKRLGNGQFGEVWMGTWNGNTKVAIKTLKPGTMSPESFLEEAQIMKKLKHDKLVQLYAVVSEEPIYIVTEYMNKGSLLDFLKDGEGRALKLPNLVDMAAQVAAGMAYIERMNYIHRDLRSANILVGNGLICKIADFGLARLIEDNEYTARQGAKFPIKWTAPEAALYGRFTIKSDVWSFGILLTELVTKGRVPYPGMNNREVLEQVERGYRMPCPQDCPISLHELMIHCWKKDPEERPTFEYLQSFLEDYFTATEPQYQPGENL
Mitogen-activated protein kinase kinase kinase 12 (Homo sapiens), sequence (Q12852 whole entry): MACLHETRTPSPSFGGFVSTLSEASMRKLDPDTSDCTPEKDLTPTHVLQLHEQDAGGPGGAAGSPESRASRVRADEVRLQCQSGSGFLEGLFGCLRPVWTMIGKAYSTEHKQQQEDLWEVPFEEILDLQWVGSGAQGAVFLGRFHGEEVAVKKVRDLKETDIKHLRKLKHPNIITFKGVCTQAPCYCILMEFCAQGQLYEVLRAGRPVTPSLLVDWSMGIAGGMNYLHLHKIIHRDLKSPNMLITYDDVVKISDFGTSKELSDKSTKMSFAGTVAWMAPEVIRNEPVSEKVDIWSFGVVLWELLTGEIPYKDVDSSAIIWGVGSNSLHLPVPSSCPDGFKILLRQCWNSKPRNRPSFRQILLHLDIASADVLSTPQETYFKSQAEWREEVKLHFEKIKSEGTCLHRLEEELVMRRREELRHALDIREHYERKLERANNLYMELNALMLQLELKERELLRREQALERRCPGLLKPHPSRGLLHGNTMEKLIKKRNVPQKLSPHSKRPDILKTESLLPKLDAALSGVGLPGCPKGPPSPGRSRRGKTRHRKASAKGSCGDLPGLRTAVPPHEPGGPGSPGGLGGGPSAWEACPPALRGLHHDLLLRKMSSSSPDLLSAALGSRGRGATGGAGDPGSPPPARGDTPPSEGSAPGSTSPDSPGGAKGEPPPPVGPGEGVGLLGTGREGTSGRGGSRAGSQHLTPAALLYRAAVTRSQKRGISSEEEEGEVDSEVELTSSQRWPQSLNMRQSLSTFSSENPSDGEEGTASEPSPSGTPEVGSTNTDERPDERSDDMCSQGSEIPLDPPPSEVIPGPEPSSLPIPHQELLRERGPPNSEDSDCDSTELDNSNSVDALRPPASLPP
Serine/threonine-protein kinase Nek7 (Homo sapiens), sequence (Q8TDX7 whole entry, looked up): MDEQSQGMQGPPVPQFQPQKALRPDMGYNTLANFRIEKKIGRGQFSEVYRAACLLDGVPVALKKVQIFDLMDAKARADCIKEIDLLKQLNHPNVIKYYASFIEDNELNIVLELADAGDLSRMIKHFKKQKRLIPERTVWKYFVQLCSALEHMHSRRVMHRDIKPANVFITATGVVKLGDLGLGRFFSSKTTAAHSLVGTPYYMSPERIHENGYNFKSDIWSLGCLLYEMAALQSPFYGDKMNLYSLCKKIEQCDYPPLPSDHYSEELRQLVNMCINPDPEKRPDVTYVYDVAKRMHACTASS
Serine/threonine-protein kinase 33 (Homo sapiens), sequence (Q9BYT3 whole entry, looked up): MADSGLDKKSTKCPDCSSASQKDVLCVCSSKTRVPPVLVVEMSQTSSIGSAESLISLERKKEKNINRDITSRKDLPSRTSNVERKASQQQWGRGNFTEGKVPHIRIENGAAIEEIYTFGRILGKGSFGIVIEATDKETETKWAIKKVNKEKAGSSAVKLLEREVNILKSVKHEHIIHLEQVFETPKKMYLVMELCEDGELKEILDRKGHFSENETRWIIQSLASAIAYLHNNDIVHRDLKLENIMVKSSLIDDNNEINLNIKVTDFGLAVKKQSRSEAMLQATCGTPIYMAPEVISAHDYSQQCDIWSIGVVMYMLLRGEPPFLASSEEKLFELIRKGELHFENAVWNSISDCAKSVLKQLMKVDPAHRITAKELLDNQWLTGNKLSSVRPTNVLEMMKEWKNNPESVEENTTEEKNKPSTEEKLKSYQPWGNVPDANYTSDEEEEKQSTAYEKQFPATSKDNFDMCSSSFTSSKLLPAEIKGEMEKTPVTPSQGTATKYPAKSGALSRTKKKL
Serine/threonine-protein kinase TNNI3K (Homo sapiens), sequence (Q59H18 whole entry): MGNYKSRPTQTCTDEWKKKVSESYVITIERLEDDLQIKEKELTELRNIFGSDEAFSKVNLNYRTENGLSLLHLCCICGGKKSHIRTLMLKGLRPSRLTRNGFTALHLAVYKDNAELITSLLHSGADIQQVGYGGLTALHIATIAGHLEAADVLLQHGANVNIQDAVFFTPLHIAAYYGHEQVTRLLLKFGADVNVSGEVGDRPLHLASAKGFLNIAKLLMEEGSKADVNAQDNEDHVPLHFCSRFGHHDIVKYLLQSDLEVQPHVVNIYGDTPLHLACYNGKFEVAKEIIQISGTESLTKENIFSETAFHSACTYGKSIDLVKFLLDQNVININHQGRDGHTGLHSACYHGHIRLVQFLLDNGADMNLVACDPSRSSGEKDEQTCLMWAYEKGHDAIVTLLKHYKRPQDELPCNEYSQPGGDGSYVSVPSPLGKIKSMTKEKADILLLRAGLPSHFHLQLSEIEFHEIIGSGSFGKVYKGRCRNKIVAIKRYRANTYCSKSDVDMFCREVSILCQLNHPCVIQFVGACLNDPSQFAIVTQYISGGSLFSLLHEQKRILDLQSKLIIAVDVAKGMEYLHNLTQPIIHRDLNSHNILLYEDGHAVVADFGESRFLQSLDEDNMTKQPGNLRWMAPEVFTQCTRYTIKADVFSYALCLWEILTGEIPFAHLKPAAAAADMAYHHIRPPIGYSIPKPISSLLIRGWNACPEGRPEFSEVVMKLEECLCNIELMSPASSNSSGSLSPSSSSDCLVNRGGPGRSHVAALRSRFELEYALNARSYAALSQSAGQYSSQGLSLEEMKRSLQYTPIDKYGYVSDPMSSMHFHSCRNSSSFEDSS
Mitogen-activated protein kinase kinase kinase kinase 4 (Homo sapiens), sequence (O95819 2-1239 limits assumed): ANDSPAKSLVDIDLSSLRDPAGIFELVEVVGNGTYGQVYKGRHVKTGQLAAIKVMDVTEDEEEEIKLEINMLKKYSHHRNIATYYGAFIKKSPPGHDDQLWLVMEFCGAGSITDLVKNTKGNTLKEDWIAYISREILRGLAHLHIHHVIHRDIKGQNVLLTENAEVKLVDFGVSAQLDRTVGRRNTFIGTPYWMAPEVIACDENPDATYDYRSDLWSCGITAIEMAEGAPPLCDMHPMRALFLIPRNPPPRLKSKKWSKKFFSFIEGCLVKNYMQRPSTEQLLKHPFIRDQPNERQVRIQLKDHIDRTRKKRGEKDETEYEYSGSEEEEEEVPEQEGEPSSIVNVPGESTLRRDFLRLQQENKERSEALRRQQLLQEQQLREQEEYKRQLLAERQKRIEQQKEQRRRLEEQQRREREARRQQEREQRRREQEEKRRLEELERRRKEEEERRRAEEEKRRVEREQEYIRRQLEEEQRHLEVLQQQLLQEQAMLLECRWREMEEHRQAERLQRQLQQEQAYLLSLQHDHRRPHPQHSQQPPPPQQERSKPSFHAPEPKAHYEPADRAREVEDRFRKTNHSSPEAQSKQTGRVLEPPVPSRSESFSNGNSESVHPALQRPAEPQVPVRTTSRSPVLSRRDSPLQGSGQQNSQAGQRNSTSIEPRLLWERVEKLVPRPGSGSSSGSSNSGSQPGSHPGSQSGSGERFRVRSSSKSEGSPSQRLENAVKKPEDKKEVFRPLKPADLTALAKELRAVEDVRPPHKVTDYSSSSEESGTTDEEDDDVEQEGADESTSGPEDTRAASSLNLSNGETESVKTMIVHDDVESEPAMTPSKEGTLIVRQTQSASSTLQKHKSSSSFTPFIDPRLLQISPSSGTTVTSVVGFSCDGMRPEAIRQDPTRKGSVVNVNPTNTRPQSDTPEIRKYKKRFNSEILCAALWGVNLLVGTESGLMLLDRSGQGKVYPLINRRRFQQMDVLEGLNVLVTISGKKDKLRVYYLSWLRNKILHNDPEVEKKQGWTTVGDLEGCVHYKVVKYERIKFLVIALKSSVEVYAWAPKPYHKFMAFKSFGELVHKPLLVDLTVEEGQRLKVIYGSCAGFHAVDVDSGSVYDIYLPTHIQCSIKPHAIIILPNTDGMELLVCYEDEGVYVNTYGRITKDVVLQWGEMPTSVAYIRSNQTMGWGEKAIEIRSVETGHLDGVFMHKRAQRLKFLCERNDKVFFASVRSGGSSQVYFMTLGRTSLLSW
Receptor-interacting serine/threonine-protein kinase 2 (Homo sapiens), sequence (O43353 whole entry): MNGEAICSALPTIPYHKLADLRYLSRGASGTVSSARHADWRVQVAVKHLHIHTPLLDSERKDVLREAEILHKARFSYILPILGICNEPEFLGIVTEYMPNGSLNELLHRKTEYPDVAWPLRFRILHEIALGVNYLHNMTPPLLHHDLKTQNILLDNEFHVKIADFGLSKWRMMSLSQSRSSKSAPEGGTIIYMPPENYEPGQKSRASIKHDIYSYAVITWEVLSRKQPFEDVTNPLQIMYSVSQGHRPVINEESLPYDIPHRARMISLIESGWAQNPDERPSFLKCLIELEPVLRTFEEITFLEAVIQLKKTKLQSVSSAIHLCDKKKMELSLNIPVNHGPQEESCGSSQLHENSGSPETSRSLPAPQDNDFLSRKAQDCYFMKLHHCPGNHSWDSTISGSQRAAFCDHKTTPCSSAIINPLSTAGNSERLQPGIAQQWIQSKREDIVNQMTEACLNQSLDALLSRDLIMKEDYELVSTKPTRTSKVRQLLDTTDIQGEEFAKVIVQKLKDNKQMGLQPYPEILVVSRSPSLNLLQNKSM

CNC(=O)Nc1ccc2c(c1)[C@@]1(CC2)OC(=O)N(CC(=O)N(Cc2ccc(F)cc2)[C@@H](C)C(F)(F)F)C1=O [A-486]
inactive: inhibition [1] 7% | residual activity [2] 100% | residual activity [3] 66% | residual activity [4] 100% | residual activity [5] 89% | residual activity [6] 100% | residual activity [7] 100% | residual activity [8] 92% | residual activity [9] 100% | residual activity [10] 100% | residual activity [11] 98% | residual activity [12] 84% | residual activity [13] 100% | residual activity [14] 79% | residual activity [15] 92% | residual activity [16] 87% | residual activity [17] 100% | residual activity [18] 85% | residual activity [19] 100% | residual activity [20] 93% | residual activity [21] 100% | residual activity [22] 100% | residual activity [23] 100% | residual activity [24] 93% | residual activity [25] 100% | residual activity [26] 100% | residual activity [27] 83% | residual activity [28] 84% | residual activity [29] 88% | residual activity [30] 100% | residual activity [31] 100% | residual activity [32] 98% | residual activity [33] 100% | residual activity [34] 59% | residual activity [35] 100% | residual activity [36] 100% | inhibition [37] 2.78% | inhibition [38] 6.93% | inhibition [39] 5.42%

CNC(=O)Nc1ccc2c(c1)CC[C@@]21OC(=O)N(CC(=O)N(Cc2ccc(F)cc2)[C@@H](C)C(F)(F)F)C1=O [A-485]
inactive: inhibition [1] 12% | residual activity [2] 97% | residual activity [3] 86% | residual activity [4] 100% | residual activity [5] 84% | residual activity [6] 75% | residual activity [7] 100% | residual activity [8] 100% | residual activity [9] 100% | residual activity [10] 90% | residual activity [11] 100% | residual activity [12] 100% | residual activity [13] 89% | residual activity [14] 100% | residual activity [15] 83% | residual activity [16] 91% | residual activity [17] 87% | residual activity [18] 94% | residual activity [19] 82% | residual activity [20] 81% | residual activity [21] 89% | residual activity [22] 94% | residual activity [23] 91% | residual activity [24] 83% | residual activity [25] 92% | residual activity [26] 100% | residual activity [27] 100% | residual activity [28] 87% | residual activity [29] 83% | residual activity [30] 95% | residual activity [31] 100% | residual activity [32] 97% | residual activity [33] 82% | residual activity [34] 100% | residual activity [35] 99% | residual activity [36] 73% | inhibition [37] 5.99% | inhibition [38] 28.2% | inhibition [39] 2.64%
